Where two headings read alike, the source gives them in different places.
Legend:
[1] = tested on: protein synthesis in human HeLa cell extract; assay: HeLa in vitro translation (GFP expression in cell extract); type: biochemical; details: 100 μM
Protocol: page 27: When test compounds were to be screened, the compound of interest (solubilised in 100% DMSO) was dispensed into assay plates using an Echo® 550 (Labcyte) before L. tarentolae extract and eGFP template DNA were added to assay wells as described above. The reaction was run at room temperature for 120 min before eGFP fluorescence intensity was measured. IC50 curve fitting was undertaken in GraFit version 6.0 (Erithacus Software) using a four-parameter logistic dose-response curve (equation 6), with s the slope. […] GFP expression was monitored over time using a BMG PheraStar plate reader (Excitation 485 nm; Emission 520 nm). When testing DDD806905 and the positive control compound cycloheximide, compounds (solubilised in 100% DMSO) were dispensed into assay plates using an Echo® 550 (Labcyte) before HeLa extract, accessory proteins, reaction mix and GFP template DNA were added to assay wells and GFP expression monitored as described above. Mitochondrial protein synthesis assay The effect of DDD806905 on mitochondrial protein synthesis was determined by BioDuro using the MitoBiogenesisTM In-Cell ELISA Kit (Abcam). […] In the assay the levels of SDH-A and COX-1 are measured in H9C2 cells. These are normalised to DMSO treated cells (vehicle) and then the ratio of normalised SDH-A over COX-1 is calculated. […]

[2] = tested on: protein synthesis in Leishmania tarentolae cell extract; assay: Leishmania tarentolae in vitro translation (eGFP expression in cell extract); type: biochemical; details: L. tarentolae extract, read-out: EC50 inhibition of eGFP protein synthesis
Protocol: Crystals of TbMetRS:Met were obtained by incubating TbMetRS with 10 mM methionine and 1 mM TCEP before crystallisation by sitting drop vapour diffusion against a reservoir solution containing 2.0-2.3 M Ammonium Sulphate, 0.2 M NaCl, 0.1 M Na Cacodylate pH 6.0-6.6. Single crystals grew after 3-4 days incubation at 18 °C. To obtain ternary TbMetRS:Met:Ligand complexes, TbMetRS:Met crystals were soaked for 10-30 seconds in a 10 μl drop consisting of 1 μl of ligand (20 mM in 20% DMSO), 4 μl reservoir solution and 5 μl glycerol. Crystals were flash frozen immediately in liquid nitrogen in preparation for data collection.
Diffraction data were measured at Diamond Light Source beamline I02. […]
Protein translation in a Leishmania cell extract was studied using a commercially available cell-free protein expression kit (Jena Bioscience). Reactions were carried out in black 384-well, small-volume plates (Greiner) in 10 µl reaction volumes containing 7 µl L. tarentolae cell extract, 1 µl eGFP DNA template and 2 µl nuclease free water (‘no DNA’ wells were included as negative controls). eGFP expression was monitored over time using a BMG PheraStar plate reader (Excitation 485 nm; […]
The effect of DDD806905 on mitochondrial protein synthesis was determined by BioDuro using the MitoBiogenesisTM In-Cell ELISA Kit (Abcam). […] In the assay the levels of SDH-A and COX-1 are measured in H9C2 cells. […]

Cl.Cl.O=c1nc(NCCCNCc2cc3c(Cl)cc(Cl)cc3[nH]2)[nH]c2ccccc12 [DDD806905, 2-((3-(((4,6-dichloro-1H-indol-2-yl)methyl)amino)propyl)amino)quinazolin-4(1H)-one dihydrochloride]
inhibition of in vitro translation in HeLa cell extract [1]: no inhibition | EC50 ([2]; additional 1.5 mM methionine): 12 µM | EC50 ([2]; no additional methionine): 2.2 µM

Source: paper PMC5663395, “Chemical Validation of Methionyl-tRNA Synthetase as a Druggable Target in Leishmania donovani” (ACS Infectious Diseases, 2017)
